This is an account of results in PubChem BioAssay AID730 (The Scripps Research Institute Molecular Screening Center, 2007).

The test addresses CHO S1P3/Ga15 NFAT-beta-lactamase reporter, FRET fluorescence. Briefly: S1P3 reporter-cell activation, dose response, counter-screen for 5HT1E agonist project (AID 730). A general note: Counterscreens check selectivity or assay interference.

Active and inactive are the calls of the source.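 The calls were made as follows: active = EC50 at or below 10 micromolar, taken from the curve fit or judged by hand from the single doses; inactive = EC50 above 10 micromolar.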 A value given as a limit tells only on which side of the number the result lay.

Consider `CN1CCN(/C(=N\O)c2nonc2N)CC1`, for which the EC50 is > 40 µM (inactive).
The figure for `Cn1cc(/C(Cc2ccccc2)=N\O)c2ccccc21` is > 40 µM (inactive).
The figure for `CCOC(=O)C1=C(C)NC(=O)NC1c1ccc(OCC(=O)Nc2ccccc2)c(OC)c1` (stereo not drawn) is > 40 µM (inactive).

By EC50 is commonly meant the concentration needed to bring the measured effect to its halfway point.
